Experiments:
Format in all cases: in vivo
[1] = Brain levels of morphine, fluorometric; details: Swiss Webster mice, third day of morphine treatment, n=6
Procedure: Brain levels of morphine were measured in mice which received either the peptide or vehicle injections. For these studies mice were also sacrificed on the third day following morphine implantation. The mice were then sacrificed by decapitation, brains were rapidly removed, frozen on dry ice, and stored at -80° C. until assay for morphine content. Brain morphine concentrations were determined fluorometrically (Bhargava, H. N., J. Pharma. Sci., 66, 1044-1045[1977]).

morphine-dependent mice [2] = test: Naloxone-precipitated withdrawal: body temperature and withdrawal signs
morphine-dependent mice [3] = test: Analgesia during morphine pellet implantation: jump threshold on electrified grid; details: peptide-injected mice receiving morphine
Procedure: (§1) The level of analgesia was tested on each of the three days of the experiment. This was accomplished by measuring the jump threshold to an increasing electrical current in an electrified grid attached to a BRS/LVE #SGS-004 shock generator/scrambler (Evans, W. D., Phychopharmacol., 2, 318-325[1961]). Mice were tested only once and thereafter discarded from the experiment. When determining the effect of the peptide on overt signs of physical dependence (body temperature and weight) and tolerance (body temperature and analgesia), the peptide or vehicle was injected only once on the third day of the morphine or placebo pellet implantation (25 hours prior to the removal of the pellet).
Inhibition of development of tolerance to and physical dependence upon morphine by Z-Pro-D-Leu. The jump threshold in vehicle-injected, morphine-dependent mice decreased, indicating development of tolerance to the analgesic properties of morphine. Threshold scores were: 4.00±0.18;3.50±0.52; 2.55±0.44; on days 1-3 respectively, (n=6 for each group).

morphine-dependent mice [4] = test: Abrupt withdrawal after pellet removal: body temperature and body weight for 10 hours (FIG. 1); details: Swiss Webster mice, any time point up to 10 hours
Procedure: FIG. 1 illustrates the inhibition of development of physical dependence (abrupt withdrawal) by Z-Pro-D-Leu. Swiss Webster mice were implanted with either morphine or placebo tablets for a period of 3 days. Following removal of the pellets, body temperature and body weight were followed for 10 hours. Panel (a) represents the change in body temperature: (Δ--Δ) Z-Pro-D-Leu/morphine; (O--O) vehicle/morphine; ( -- ) Z-Pro-D-Leu/placebo; ( -- ) vehicle/placebo. Panel (b) represents the maximal loss in body weight during the same period.
To determine the effects of peptide treatment on the development of physical dependence, the abstinence syndrome was precipitated using the morphine antagonist naloxone (Endo Laboratories Inc., N.Y.) at the appropriate dose (0.1, 0.25, or 0.50 mg/kg) injected intraperitoneally (IP) one hour following removal of morphine and placebo pellets. Pellet removal was performed 24 hours after the last peptide injection. These mice were monitored for changes in body temperature (see above) and body weight at 15 min. intervals for one hour after the naloxone injection. Effects of removing the pellets (withdrawing morphine) were also assessed by utilizing body temperature and weight as physical dependence parameters; however, these measurements were made at 2 hour intervals for 10 hours after the removal of the pellets. […]

morphine-dependent mice [5] = test: Naloxone-precipitated withdrawal: body temperature and withdrawal signs; remark: listed apart in the source
Procedure: (§2) The mice were randomly divided into two groups. One received SC injections of water (vehicle) while the other received the peptide under investigation (50 μg/mouse on day one). Two hours later the mice were further subdivided and each subgroup was implanted with placebo or morphine pellets. The injections of vehicle and peptide were repeated 24 and 48 hours after the first injection in their respective groups. Morphine pellets containing 75 mg of morphine free base were implanted subcutaneously (SC) between 10-11 A.M. and were removed 3 days later at the same time. The control animals were implanted with placebo pellets. Body temperature and weight were measured daily at 11 A.M. Temperature was measured using a lubricated rectal probe inserted 2.5 cm into the rectum and measured with a telethermometer (Model 43TA Yellow Springs Instrument Co., Yellow Springs, Ohio).
To determine the effects of peptide treatment on the development of physical dependence, the abstinence syndrome was precipitated using the morphine antagonist naloxone (Endo Laboratories Inc., N.Y.) at the appropriate dose (0.1, 0.25, or 0.50 mg/kg) injected intraperitoneally (IP) one hour following removal of morphine and placebo pellets. Pellet removal was performed 24 hours after the last peptide injection. These mice were monitored for changes in body temperature (see above) and body weight at 15 min. intervals for one hour after the naloxone injection. Effects of removing the pellets (withdrawing morphine) were also assessed by utilizing body temperature and weight as physical dependence parameters; however, these measurements were made at 2 hour intervals for 10 hours after the removal of the pellets. Placebo implanted mice were treated in the same manner as the morphine pellet implanted mice.

morphine-dependent mice [6] = test: Body temperature, body weight and mortality during 3-day morphine pellet implantation with multiple peptide injections
Procedure: Male C57B1/6J, Swiss Webster, and ICR mice weighing 26±4 g (SD) were used in these studies.
as §2
A similar relationship was found for the loss in body weight. Swiss Webster mice lost 16% and 14% in body weight when receiving Z-Pro-D-Leu or vehicle respectively. The C57B1/6J mice given Z-Pro-D-Leu/morphine lost 14%, while the vehicle/morphine group lost 11% in body weight during this period regardless of peptide or vehicle injections. There was one significant strain difference, i.e. a greater mortality during morphine treatment of C57B1/6J mice ([…], Binomial test).

morphine-dependent mice [7] = test: Tolerance to hypothermic and analgesic effects of ICV morphine 24 hours after pellet removal; details: for Jump Threshold: one hr. after ICV morphine
Procedure: as §1
Tolerance to hypothermic and analgesic effects of morphine injected intracerebroventricularly (ICV) was assessed 24 hours after the removal of the pellets in mice not injected with naloxone. The ICV injection was 40 μg of morphine sulfate solution in 10 μl volume. Body temperature was recorded prior to and at 10 and 15 min. after injection of morphine. Analgesia was determined one hour after the ICV injection.

[8] = C57B1/6J, Z-Pro-D-Leu/morphine, peptide day 3 only, n=6, ICV morphine challenge
[9] = C57B1/6J, Z-Pro-D-Leu/placebo pellets, n=8, ICV morphine challenge
[10] = C57B1/6J, Z-Pro-D-Leu/placebo, peptide day 3 only, n=6, ICV morphine challenge
[11] = Swiss Webster, Z-Pro-D-Leu/morphine pellets, n=15, ICV morphine challenge
[12] = Swiss Webster, Z-Pro-D-Leu/placebo pellets, n=8, ICV morphine challenge

For Z-Pro-D-Leu, the brain morphine levels [1] was 288 ± 99 µg/g, the “Withdrawal, % of control” value (morphine-dependent mice [2]; Table III, dose 0.5 μg) was 100% and the “Withdrawal, % of control” value (morphine-dependent mice [2]; Table III, dose 5 μg) was 25%. For the same substance, the “Δt, °C.” value (morphine-dependent mice [2]; Table III, dose 5 μg) was -0.05 ± 0.37 °C, the “body temperature response 30 min after naloxone” value (morphine-dependent mice [2]; peptide injection only on the third day of morphine treatment) was “hypothermic response” and the “body temperature response 30 min after naloxone” value (morphine-dependent mice [2]; peptide/morphine treatment, multiple injections, naloxone 0.1-0.50 mg/kg IP) was “mild hyperthermia”. For the same substance, the jump threshold score (morphine-dependent mice [3]; day 1) was 4.07±0.27, the jump threshold score (morphine-dependent mice [3]; day 2) was 4.27±0.62 and the jump threshold score (morphine-dependent mice [3]; day 3) was 4.45±0.64. For the same substance, the “hypothermia and loss of body weight during abstinence, peptide/morphine versus the two control groups” value (morphine-dependent mice [4]) was “no significant difference”, the “Withdrawal, % of control (jumping, shakes, diarrhea)” value (morphine-dependent mice [5]; Table II, peptide 50 μg per mouse, naloxone 0.1 mg/kg) was 9% and the “Δt, °C. (difference in body temperature just prior to naloxone and 30 min. thereafter)” value (morphine-dependent mice [5]; Table II, peptide 50 μg per mouse, naloxone 0.1 mg/kg, mean ± SD) was -0.09 ± 0.58 °C. The “Withdrawal, % of control” value (morphine-dependent mice [5]; Table III, dose 50 μg) was 9%, the “Δt, °C.” value (morphine-dependent mice [5]; Table III, dose 50 μg) was -0.09 ± 0.58 °C and the “lowest dose still effective in blocking physical dependence on morphine” value (morphine-dependent mice [5]; dose-response experiments, Table III) was 5 μg per mouse. For the same substance, the “ability to block development of physical dependence on morphine” value (morphine-dependent mice [5]; naloxone-precipitated withdrawal, Tables II and III) was “exhibited activity”, the “number of deaths, peptide/morphine compared with vehicle/morphine” value (morphine-dependent mice [6]; C57B1/6J P=0.32, Swiss Webster P=0.65, Binomial test) was “no difference in the number of deaths” and the “body temperature (X) on the third day of morphine treatment” value (morphine-dependent mice [6]; Swiss Webster mice, morphine pellets, multiple injections of peptide 50 μg/mouse SC, day 3, n=14) was -1.5 °C. For the same substance, the “body temperature on days 1 and 2 versus vehicle” value (morphine-dependent mice [6]; Swiss Webster or C57B1/6J mice receiving morphine, days 1 and 2) was “no significant difference in body temperature”, the “Δt (15 min.)” value (morphine-dependent mice [7]; C57B1/6J, Z-Pro-D-Leu/morphine pellets, n=9, ICV morphine challenge) was -2.12 ± 0.52 and the “Δt (10 min.)” value (morphine-dependent mice [7]; C57B1/6J, Z-Pro-D-Leu/morphine pellets, n=9, ICV morphine challenge 24 hrs after pellet removal) was -2.04 ± 0.42. For the same substance, the “Δt (10 min.)” value (morphine-dependent mice [7]; [8]) was -0.75 ± 0.19, the “Δt (15 min.)” value (morphine-dependent mice [7]; [8]) was -1.00 ± 0.16 and the “Jump Threshold” value (morphine-dependent mice [7]; C57B1/6J, Z-Pro-D-Leu/morphine, peptide day 3 only, n=6) was 2.12 ± 0.34. For the same substance, the “Δt (10 min.)” value (morphine-dependent mice [7]; [9]) was -1.76 ± 0.33, the “Δt (15 min.)” value (morphine-dependent mice [7]; [9]) was -2.19 ± 0.41 and the “Jump Threshold” value (morphine-dependent mice [7]; C57B1/6J, Z-Pro-D-Leu/placebo pellets, n=8) was 3.79 ± 0.39. For the same substance, the “Δt (10 min.)” value (morphine-dependent mice [7]; [10]) was -1.85 ± 0.25, the “Δt (15 min.)” value (morphine-dependent mice [7]; [10]) was -1.88 ± 0.17 and the “Jump Threshold” value (morphine-dependent mice [7]; C57B1/6J, Z-Pro-D-Leu/placebo, peptide day 3 only, n=6) was 4.05 ± 0.85. For the same substance, the “Δt (10 min.)” value (morphine-dependent mice [7]; [11]) was -1.10 ± 0.29, the “Δt (15 min.)” value (morphine-dependent mice [7]; [11]) was -1.32 ± 0.34 and the “Jump Threshold” value (morphine-dependent mice [7]; Swiss Webster, Z-Pro-D-Leu/morphine pellets, n=15) was 4.33 ± 0.54. The “Δt (10 min.)” value (morphine-dependent mice [7]; [12]) was -1.16 ± 0.30, the “Δt (15 min.)” value (morphine-dependent mice [7]; [12]) was -1.48 ± 0.46 and the “Jump Threshold” value (morphine-dependent mice [7]; Swiss Webster, Z-Pro-D-Leu/placebo pellets, n=8) was 4.18 ± 0.41. The “response to ICV injection of morphine” value (morphine-dependent mice [7]; peptide given during chronic morphine treatment) was “not significantly different from morphine-naive mice” and the “response to ICV injection of morphine” value (morphine-dependent mice [7]; peptide given only on the third day of pellet implantation) was “did not effectively alter the manifestation of tolerance”.
